According to patent US7138361B2, “Herbicidal heterocycles” (E. I. du Pont de Nemours and Company, priority 2000, dated 2006):

Key:
Assay type in all cases: in vivo
[1] = tested on: Surinam grass (Brachiaria decumbens); assay: Test B postemergence
How it was run: (§1)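 Pre: seeded pots sprayed, chemical in non-phytotoxic solvent/surfactant mix. Post: plants 2–18 cm, 1–4 leaf, same formulation. Greenhouse 13–15 d; visual % control vs untreated, 0–100 scale.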

[2] = tested on: barnyardgrass (Echinochloa crus-galli); assay: Test B postemergence
How it was run: as §1

[3] = tested on: blackgrass (Alopecurus myosuroides); assay: Test B postemergence
How it was run: as §1

corn (Zea mays) [4] = assay: Test B postemergence
How it was run: as §1

[5] = tested on: giant foxtail (Setaria faberii); assay: Test B postemergence
How it was run: as §1

[6] = tested on: morning glory (Ipomoea hederacea); assay: Test B postemergence
How it was run: as §1

[7] = tested on: pigweed (Amaranthus retroflexus); assay: Test B postemergence
How it was run: as §1

[8] = tested on: velvetleaf (Abutilon theophrasti); assay: Test B postemergence
How it was run: as §1

[9] = tested on: wheat (Triticum aestivum); assay: Test B postemergence
How it was run: as §1

[10] = tested on: Surinam grass (Brachiaria decumbens); assay: Test B preemergence
How it was run: as §1

[11] = tested on: barnyardgrass (Echinochloa crus-galli); assay: Test B preemergence
How it was run: as §1

[12] = tested on: cocklebur (Xanthium strumarium); assay: Test B preemergence
How it was run: as §1

corn (Zea mays) [13] = assay: Test B preemergence
How it was run: as §1

[14] = tested on: crabgrass (Digitaria sanguinalis); assay: Test B preemergence
How it was run: as §1

[15] = tested on: giant foxtail (Setaria faberii); assay: Test B preemergence
How it was run: as §1

[16] = tested on: lambsquarters (Chenopodium album); assay: Test B preemergence
How it was run: as §1

[17] = tested on: morning glory (Ipomoea hederacea); assay: Test B preemergence
How it was run: as §1

[18] = tested on: pigweed (Amaranthus retroflexus); assay: Test B preemergence
How it was run: as §1

[19] = tested on: velvetleaf (Abutilon theophrasti); assay: Test B preemergence
How it was run: as §1

[20] = tested on: barnyardgrass (Echinochloa crus-galli); assay: Test C flooded paddy test; conditions: for Barnyardgrass plant response rating: Rate 250 g/ha, scale 0 to 100, 0 no effect, 100 complete control
How it was run: (§2)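 Visual ratings (0 = no effect, 100 = complete control) were made 12–14 days after treatment, relative to greenhouse controls. Plants in the flooded paddy test were rice, smallflower flatsedge, duck salad and barnyardgrass, treated at the 2-leaf stage.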

[21] = tested on: duck salad (Heteranthera limosa); assay: Test C flooded paddy test; conditions: for Ducksalad plant response rating: Rate 250 g/ha, scale 0 to 100, 0 no effect, 100 complete control
How it was run: as §2

rice (Oryza saliva) [22] = assay: Test C flooded paddy test; conditions: for Rice plant response rating: Rate 250 g/ha, scale 0 to 100, 0 no effect, 100 complete control
How it was run: as §2

[23] = tested on: smallflower flatsedge (Cyperus difformis); assay: Test C flooded paddy test; conditions: for Flatsedge plant response rating: Flooded Paddy, scale 0 to 100, 0 no effect, 100 complete control; for Plant response rating, Flatsedge: flooded paddy test, scale 0 to 100 (0 no effect, 100 complete control)
How it was run: as §2

rice (Oryza saliva) [24] = assay: Test B preemergence; conditions: preemergence
How it was run: as §1

[25] = Rate 125 g/ha, scale 0 (no effect) to 100 (complete control), 13 to 15 days
[26] = Rate 500 g/ha, scale 0 to 100, 0 is no effect, 100 is complete control, 13 to 15 days
[27] = Preemergence, Rate 500 g/ha, scale 0 to 100, 0 no effect, 100 complete control
[28] = preemergence, Rate 125 g/ha, scale 0 to 100, 0 no effect, 100 complete control
[29] = Flooded Paddy, Rate 500 g/ha, scale 0 to 100
[30] = Flooded Paddy, Rate 1000 g/ha, scale 0 to 100
[31] = flooded paddy test, Rate 62 g/ha, scale 0 to 100 (0 no effect, 100 complete control)
[32] = flooded paddy test, Rate 125 g/ha, scale 0 to 100 (0 no effect, 100 complete control)
[33] = Rate 62 g/ha, scale 0 to 100, 0 no effect, 100 complete control
[34] = Rate 250 g/ha, scale 0 (no effect) to 100 (complete control), 13 to 15 days
[35] = preemergence, Rate 62 g/ha, scale of 0 to 100 where 0 is no effect and 100 is complete control, 13 to 15 days
[36] = preemergence, Rate 250 g/ha, scale 0 to 100, 0 no effect, 100 complete control

Structure (SMILES): CC(C)(C)c1ccn(C2CCN(c3cccc(C(F)(F)F)c3)C2=O)n1 (centres unmarked) [Example 3, 3-[3-(1,1-dimethylethyl)-1H-pyrazol-1-yl]-1-[3-(trifluoromethyl)phenyl]-2-pyrrolidinone]
- Plant response rating, Surinam grass [1, 25]: 0
- Plant response rating, Surinam grass [1, 26]: 20
- Plant response rating, Barnyardgrass [2, 25]: 0
- Plant response rating, Barnyardgrass [2, 26]: 70
- Plant response rating, Blackgrass [3, 25]: 0
- Plant response rating, Blackgrass [3, 26]: 0
- Plant response rating, Corn (corn (Zea mays) [4]; [25]): 0
- Plant response rating, Corn (corn (Zea mays) [4]; [26]): 0
- Plant response rating, Foxtail, Giant [5, 25]: 0
- Plant response rating, Foxtail, Giant [5, 26]: 30
- Plant response rating, Morningglory [6, 25]: 0
- Plant response rating, Morningglory [6, 26]: 30
- Plant response rating, Pigweed [7, 25]: 70
- Plant response rating, Pigweed [7, 26]: 90
- Plant response rating, Velvetleaf [8, 25]: 0
- Plant response rating, Velvetleaf [8, 26]: 0
- Plant response rating, Wheat [9, 25]: 0
- Plant response rating, Wheat [9, 26]: 0
- Plant response rating, Surinam grass [10, 27]: 70
- Plant response rating, Surinam grass [10, 28]: 40
- Plant response rating, Barnyardgrass [11, 27]: 100
- Plant response rating, Barnyardgrass [11, 28]: 80
- Plant response rating, Cocklebur [12, 27]: 0
- Plant response rating, Cocklebur [12, 28]: 0
- Plant response rating, Corn (corn (Zea mays) [13]; [27]): 30
- Plant response rating, Corn (corn (Zea mays) [13]; [28]): 0
- Plant response rating, Crabgrass [14, 27]: 100
- Plant response rating, Crabgrass [14, 28]: 70
- Plant response rating, Foxtail, Giant [15, 27]: 80
- Plant response rating, Foxtail, Giant [15, 28]: 40
- Plant response rating, Lambsquarters [16, 27]: 100
- Plant response rating, Lambsquarters [16, 28]: 100
- Plant response rating, Morningglory [17, 27]: 0
- Plant response rating, Morningglory [17, 28]: 0
- Plant response rating, Pigweed [18, 27]: 100
- Plant response rating, Pigweed [18, 28]: 100
- Plant response rating, Velvetleaf [19, 27]: 0
- Plant response rating, Velvetleaf [19, 28]: 0
- Plant response rating, Barnyardgrass [20, 29]: 100
- Plant response rating, Barnyardgrass [20, 30]: 100
- Barnyardgrass plant response rating ([20]; Flooded Paddy): 100
- Plant response rating, Barnyardgrass [20, 31]: 20
- Plant response rating, Barnyardgrass [20, 32]: 80
- Plant response rating, Ducksalad [21, 29]: 90
- Plant response rating, Ducksalad [21, 30]: 100
- Ducksalad plant response rating ([21]; Flooded Paddy): 80
- Plant response rating, Ducksalad [21, 31]: 20
- Plant response rating, Ducksalad [21, 32]: 80
- Plant response rating, Rice (rice (Oryza saliva) [22]; [29]): 60
- Plant response rating, Rice (rice (Oryza saliva) [22]; [30]): 90
- Rice plant response rating (rice (Oryza saliva) [22]; Flooded Paddy): 50
- Plant response rating, Rice (rice (Oryza saliva) [22]; [31]): 0
- Plant response rating, Rice (rice (Oryza saliva) [22]; [32]): 0
- Flatsedge plant response rating ([23]; Rate 250 g/ha): 100
- Flatsedge plant response rating ([23]; Rate 500 g/ha): 100
- Flatsedge plant response rating ([23]; rate of this column group stands in head line r653, not shown (group before Rate 500 g/ha)): 100
- Plant response rating, Flatsedge ([23]; Rate 62 g/ha): 90
- Plant response rating, Flatsedge ([23]; Rate 125 g/ha): 100

Structure (SMILES): CC(C)(C)c1ccn(C2SCN(c3cccc(C(F)(F)F)c3)C2=O)n1 (centres unmarked) [Compound 1]
- Plant response rating, Surinam grass [1, 25]: 0
- Plant response rating, Surinam grass [1, 26]: 0
- Plant response rating, Barnyardgrass [2, 25]: 0
- Plant response rating, Barnyardgrass [2, 26]: 50
- Plant response rating, Blackgrass [3, 25]: 0
- Plant response rating, Blackgrass [3, 26]: 0
- Plant response rating, Corn (corn (Zea mays) [4]; [25]): 0
- Plant response rating, Corn (corn (Zea mays) [4]; [26]): 60
- Plant response rating, Foxtail, Giant [5, 25]: 30
- Plant response rating, Foxtail, Giant [5, 26]: 60
- Plant response rating, Morningglory [6, 25]: 50
- Plant response rating, Morningglory [6, 26]: 100
- Plant response rating, Pigweed [7, 25]: 90
- Plant response rating, Pigweed [7, 26]: 100
- Plant response rating, Velvetleaf [8, 25]: 50
- Plant response rating, Velvetleaf [8, 26]: 60
- Plant response rating, Wheat [9, 25]: 0
- Plant response rating, Wheat [9, 26]: 30
- Plant response rating, Surinam grass [10, 27]: 0
- Plant response rating, Surinam grass [10, 28]: 0
- Plant response rating, Barnyardgrass [11, 27]: 100
- Plant response rating, Barnyardgrass [11, 28]: 50
- Plant response rating, Cocklebur [12, 27]: 40
- Plant response rating, Cocklebur [12, 28]: 0
- Plant response rating, Corn (corn (Zea mays) [13]; [27]): 20
- Plant response rating, Corn (corn (Zea mays) [13]; [28]): 0
- Plant response rating, Crabgrass [14, 27]: 100
- Plant response rating, Crabgrass [14, 28]: 0
- Plant response rating, Foxtail, Giant [15, 27]: 100
- Plant response rating, Foxtail, Giant [15, 28]: 50
- Plant response rating, Lambsquarters [16, 27]: 100
- Plant response rating, Lambsquarters [16, 28]: 100
- Plant response rating, Morningglory [17, 27]: 40
- Plant response rating, Morningglory [17, 28]: 20
- Plant response rating, Pigweed [18, 27]: 100
- Plant response rating, Pigweed [18, 28]: 100
- Plant response rating, Velvetleaf [19, 27]: 30
- Plant response rating, Velvetleaf [19, 28]: 0
- Plant response rating, Barnyardgrass [20, 29]: 100
- Barnyardgrass plant response rating ([20]; Flooded Paddy): 30
- Plant response rating, Barnyardgrass [20, 31]: 20
- Plant response rating, Barnyardgrass [20, 32]: 80
- Plant response rating, Ducksalad [21, 29]: 100
- Ducksalad plant response rating ([21]; Flooded Paddy): 90
- Plant response rating, Ducksalad [21, 31]: 60
- Plant response rating, Ducksalad [21, 32]: 90
- Plant response rating, Rice (rice (Oryza saliva) [22]; [29]): 50
- Rice plant response rating (rice (Oryza saliva) [22]; Flooded Paddy): 0
- Plant response rating, Rice (rice (Oryza saliva) [22]; [31]): 0
- Plant response rating, Rice (rice (Oryza saliva) [22]; [32]): 0
- Flatsedge plant response rating ([23]; Rate 250 g/ha): 100
- Flatsedge plant response rating ([23]; Rate 500 g/ha): 100
- Plant response rating, Flatsedge ([23]; Rate 62 g/ha): 90
- Plant response rating, Flatsedge ([23]; Rate 125 g/ha): 100

Structure (SMILES): CC(C)(C)c1ccn(C2OCN(c3cccc(C(F)(F)F)c3)C2=O)n1 (centres unmarked) [compound 9]
- Plant response rating, Surinam grass [1, 33]: 0
- Plant response rating, Surinam grass [1, 34]: 0
- Plant response rating, Barnyardgrass [2, 33]: 0
- Plant response rating, Barnyardgrass [2, 34]: 60
- Plant response rating, Blackgrass [3, 33]: 0
- Plant response rating, Blackgrass [3, 34]: 0
- Plant response rating, Corn (corn (Zea mays) [4]; [33]): 0
- Plant response rating, Corn (corn (Zea mays) [4]; [34]): 0
- Plant response rating, Foxtail, Giant [5, 33]: 0
- Plant response rating, Foxtail, Giant [5, 34]: 0
- Plant response rating, Morningglory [6, 33]: 0
- Plant response rating, Morningglory [6, 34]: 10
- Plant response rating, Pigweed [7, 33]: 70
- Plant response rating, Pigweed [7, 34]: 80
- Plant response rating, Velvetleaf [8, 33]: 0
- Plant response rating, Velvetleaf [8, 34]: 0
- Plant response rating, Wheat [9, 33]: 0
- Plant response rating, Wheat [9, 34]: 0
- Plant response rating, Surinam grass [10, 35]: 0
- Plant response rating, Surinam grass [10, 36]: 70
- Plant response rating, Barnyardgrass [11, 35]: 0
- Plant response rating, Barnyardgrass [11, 36]: 60
- Plant response rating, Cocklebur [12, 35]: 0
- Plant response rating, Cocklebur [12, 36]: 0
- Plant response rating, Corn (corn (Zea mays) [13]; [35]): 0
- Plant response rating, Corn (corn (Zea mays) [13]; [36]): 0
- Plant response rating, Crabgrass [14, 35]: 0
- Plant response rating, Crabgrass [14, 36]: 100
- Plant response rating, Foxtail, Giant [15, 35]: 30
- Plant response rating, Foxtail, Giant [15, 36]: 90
- Plant response rating, Lambsquarters [16, 35]: 90
- Plant response rating, Lambsquarters [16, 36]: 100
- Plant response rating, Morningglory [17, 35]: 0
- Plant response rating, Morningglory [17, 36]: 0
- Plant response rating, Pigweed [18, 35]: 80
- Plant response rating, Pigweed [18, 36]: 100
- Plant response rating, Rice (rice (Oryza saliva) [24]; Rate 62 g/ha, scale of 0 to 100 where 0 is no effect and 100 is complete control, 13 to 15 days): 0
- Plant response rating, Rice (rice (Oryza saliva) [24]; Rate 250 g/ha, scale 0 to 100, 0 no effect, 100 complete control): 0
- Plant response rating, Velvetleaf [19, 35]: 0
- Plant response rating, Velvetleaf [19, 36]: 0
